Experimental data reported in the supplement of paper PMC11061612.

Experiments:
Assay in all cases: Bliss excess, mean over the matrix (fraction); higher = more synergy
[1] = test system: 23132-87 (Gastric Carcinoma)
Summary of the method: (§1)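 After 24 hours at 37°C and 5% CO2 in 1536-well plates, cells in DMEM/F12 or RPMI plus 10% FBS received two-drug dose matrices for 72 hours. Viability came from CellTiter-Glo 2.0 luminescence and was scaled as inhibition, anchored at 0 by vehicle wells and at 1 by blank wells. Combination Emax is taken as the second-highest inhibition in the matrix, and Bliss excess as the observed combination effect less EA + EB − EA·EB, with EA and EB the single-agent effects.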

A2058 (Melanoma) = test system: A2058 (Melanoma)
Summary of the method: as §1

[2] = test system: CAL-120 (Breast Carcinoma)
Summary of the method: as §1

[3] = test system: CAL-62 (Thyroid Gland Carcinoma)
Summary of the method: as §1

[4] = test system: COLO-680N (Esophageal Squamous Cell Carcinoma)
Summary of the method: as §1

[5] = test system: KE-37 (T-Lymphoblastic Leukemia)
Summary of the method: as §1

[6] = test system: L-1236 (Hodgkin's Lymphoma)
Summary of the method: as §1

[7] = test system: LB996-RCC (Kidney Carcinoma)
Summary of the method: as §1

[8] = test system: LK-2 (Squamous Cell Lung Carcinoma)
Summary of the method: as §1

[9] = test system: LXF-289 (Lung Adenocarcinoma)
Summary of the method: as §1

[10] = test system: NCI-H2342 (Lung Adenocarcinoma)
Summary of the method: as §1

[11] = test system: OAW-42 (Ovarian Carcinoma)
Summary of the method: as §1

[12] = test system: OPM-2 (Plasma Cell Myeloma)
Summary of the method: as §1

[13] = test system: PANC-03-27 (Pancreatic Carcinoma)
Summary of the method: as §1

[14] = test system: PC-3_[JPC-3] (Lung Adenocarcinoma)
Summary of the method: as §1

[15] = test system: RCM-1 (Colorectal Carcinoma)
Summary of the method: as §1

[16] = test system: RERF-GC-1B (Gastric Carcinoma)
Summary of the method: as §1

[17] = test system: RERF-LC-Sq1 (Squamous Cell Lung Carcinoma)
Summary of the method: as §1

[18] = test system: SHP-77 (Small Cell Lung Carcinoma)
Summary of the method: as §1

[19] = test system: TE-8 (Esophageal Squamous Cell Carcinoma)
Summary of the method: as §1

Compound | Bliss excess [1] | Bliss excess (A2058 (Melanoma)) | Bliss excess [2] | Bliss excess [3] | Bliss excess [4] | Bliss excess [5] | Bliss excess [6] | Bliss excess [7] | Bliss excess [8] | Bliss excess [9] | Bliss excess [10] | Bliss excess [11] | Bliss excess [12] | Bliss excess [13] | Bliss excess [14] | Bliss excess [15] | Bliss excess [16] | Bliss excess [17] | Bliss excess [18] | Bliss excess [19]
CC1(C)CCC(CN2CCN(c3ccc(C(=O)NS(=O)(=O)c4ccc(NCC5CCOCC5)c([N+](=O)[O-])c4)c(Oc4cnc5[nH]ccc5c4)c3)CC2)=C(c2ccc(Cl)cc2)C1 [Venetoclax] + Cc1cc2ncnn2cc1Nc1ncc2c(n1)n(C1CCOCC1)c(=O)n2C [AZD7648] (first compound max 1 µM, 7x7, partner max 10 µM) | -0.0008 | 0.007 | -0.0338 | -0.025 | -0.0293 | 0.0325 | -0.0274 | -0.0258 | 0.0102 | -0.0935 | -0.0473 | -0.0381 | -0.0263 | -0.043 | -0.0445 | -0.0533 | -0.0276 | -0.0268 | -0.0088 | -0.0121
CN(CCO)CC[C@H](CSc1ccccc1)Nc1ccc(S(=O)(=O)NC(=O)c2ccc(N3CCC([C@@H](O)c4ccccc4-c4ccc(Cl)cc4)CC3)cc2)cc1S(=O)(=O)C(F)(F)F [AZD4320] + Cc1cc2ncnn2cc1Nc1ncc2c(n1)n(C1CCOCC1)c(=O)n2C [AZD7648] (first compound max 1 µM, 7x7, partner max 10 µM) | -0.0311 | -0.0231 | -0.0367 | -0.0086 | -0.0437 | 0.0363 | -0.0299 | -0.0232 | -0.0075 | -0.0326 | -0.0475 | -0.0118 | 0.0418 | -0.061 | -0.0635 | -0.0153 | 0.0231 | -0.0418 | -0.0012 | -0.0357
CC1(C)CCC(CN2CCN(c3ccc(C(=O)NS(=O)(=O)c4ccc(NCC5CCOCC5)c([N+](=O)[O-])c4)c(Oc4cnc5[nH]ccc5c4)c3)CC2)=C(c2ccc(Cl)cc2)C1 [Venetoclax] + Cn1cnc2c(F)c(Nc3ccc(Br)cc3Cl)c(C(=O)NOCCO)cc21 [Selumetinib] (first compound max 1 µM, 7x7, partner max 3 µM) | -0.0507 | -0.005 | -0.0174 | -0.0114 | -0.0243 | -0.0013 | -0.0319 | -0.0209 | -0.0073 | -0.0312 | -0.0628 | -0.0283 | -0.0093 | 0.0047 | -0.0715 | -0.0369 | 0.0095 | -0.0467 | 0.105 | -0.0282
COc1nnc2ccc(N3CCC(c4ccc(OCCN5CCN(C)C(=O)[C@H]5C)cc4)CC3)nn12 [AZD5153] + Cn1cnc2c(F)c(Nc3ccc(Br)cc3Cl)c(C(=O)NOCCO)cc21 [Selumetinib] (first compound max 1 µM, 7x7, partner max 10 µM) | -0.036 | 0.0358 | 0.0386 | 0.0286 | 0.0131 | -0.0459 | -0.0252 | -0.0728 | 0.0918 | -0.0468 | 0.0267 | 0.02 | -0.0136 | 0.0131 | 0.0189 | -0.008 | 0.0579 | 0.102 | -0.134 | 0.032
Cc1c2c(nn1C)CSCc1cc(n(C)n1)CSc1cc(c3ccccc3c1)OCCCc1c(C(=O)O)n(C)c3c-2c(Cl)ccc13 [AZD5991] + CCN(CCO)CCCOc1ccc2c(Nc3cc(CC(=O)Nc4cccc(F)c4)[nH]n3)ncnc2c1 [AZD2811] (first compound max 1 µM, 7x7, partner max 1 µM) | -0.0075 | 0.114 | -0.0077 | 0.0397 | 0.007 | 0.0133 | 0.0255 | -0.0388 | -0.0115 | 0.0912 | -0.0613 | 0.0173 | 0.0578 | 0.0566 | -0.0049 | -0.0249 | 0.014 | 0.043 | -0.034 | -0.0138
C[C@@H](c1ccc2nccn2c1)n1nnc2ncc(-c3cnn(C)c3)nc21 [Savolitinib] + CC1(C)CCC(CN2CCN(c3ccc(C(=O)NS(=O)(=O)c4ccc(NCC5CCOCC5)c([N+](=O)[O-])c4)c(Oc4cnc5[nH]ccc5c4)c3)CC2)=C(c2ccc(Cl)cc2)C1 [Venetoclax] (first compound max 1 µM, 7x7, partner max 1 µM) | -0.0578 | -0.0611 | -0.0804 | -0.0246 | -0.0115 | -0.0357 | 0.0176 | -0.0725 | -0.0137 | -0.0339 | -0.0631 | -0.024 | 0.0324 | -0.0176 | -0.0457 | -0.0416 | -0.0303 | -0.0562 | -0.0623 | -0.105
CN(CCO)CC[C@H](CSc1ccccc1)Nc1ccc(S(=O)(=O)NC(=O)c2ccc(N3CCC([C@@H](O)c4ccccc4-c4ccc(Cl)cc4)CC3)cc2)cc1S(=O)(=O)C(F)(F)F [AZD4320] + C[C@@H](Nc1cc(F)cc(F)c1)c1cc(C(=O)N(C)C)cc2c(=O)cc(N3CCOCC3)oc12 [AZD8186] (first compound max 1 µM, 7x7, partner max 3 µM) | -0.031 | 0.0157 | 0.0037 | 0.046 | 0.0088 | 0.0866 | 0.0082 | 0.0394 | -0.0056 | -0.0351 | -0.0065 | 0.0688 | 0.0851 | 0.0439 | -0.0176 | -0.0416 | 0.0112 | -0.0169 | 0.0216 | 0.008
COc1nnc2ccc(N3CCC(c4ccc(OCCN5CCN(C)C(=O)[C@H]5C)cc4)CC3)nn12 [AZD5153] + C=CCn1c(=O)c2cnc(Nc3ccc(N4CCN(C)CC4)cc3)nc2n1-c1cccc(C(C)(C)O)n1 [AZD1775] (first compound max 1 µM, partner max 1 µM) | 0.0309 | -0.0175 | -0.0176 | -0.0228 | -0.0746 | 0.0096 | -0.0138 | -0.052 | 0.0029 | -0.0212 | -0.0347 | -0.0338 | -0.0366 | -0.152 | -0.06 | -0.0498 | -0.114 | -0.1 | 0.0194 | -0.0426
CN(CCO)CC[C@H](CSc1ccccc1)Nc1ccc(S(=O)(=O)NC(=O)c2ccc(N3CCC([C@@H](O)c4ccccc4-c4ccc(Cl)cc4)CC3)cc2)cc1S(=O)(=O)C(F)(F)F [AZD4320] + C=CCn1c(=O)c2cnc(Nc3ccc(N4CCN(C)CC4)cc3)nc2n1-c1cccc(C(C)(C)O)n1 [AZD1775] (first compound max 1 µM, partner max 1 µM) | 0.072 | 0.0066 | 0.0158 | 0.0035 | 0.0065 | 0.0578 | 0.0006 | 0.0405 | 0.0105 | -0.0252 | 0 | 0.0074 | 0.0457 | 0.0079 | -0.0114 | -0.0586 | 0.0515 | -0.0021 | 0.0877 | 0.0378
CN(CCO)CC[C@H](CSc1ccccc1)Nc1ccc(S(=O)(=O)NC(=O)c2ccc(N3CCC([C@@H](O)c4ccccc4-c4ccc(Cl)cc4)CC3)cc2)cc1S(=O)(=O)C(F)(F)F [AZD4320] + CCN(CCO)CCCOc1ccc2c(Nc3cc(CC(=O)Nc4cccc(F)c4)[nH]n3)ncnc2c1 [AZD2811] (first compound max 1 µM, 7x7, partner max 1 µM) | -0.0339 | 0.0723 | 0.0227 | 0.0354 | -0.0373 | -0.0049 | -0.0263 | 0.0389 | 0.0358 | -0.0532 | -0.036 | -0.0359 | 0.128 | 0.0197 | -0.0598 | -0.0207 | -0.0034 | 0.0012 | -0.0019 | 0.0845
CN(CCO)CC[C@H](CSc1ccccc1)Nc1ccc(S(=O)(=O)NC(=O)c2ccc(N3CCC([C@@H](O)c4ccccc4-c4ccc(Cl)cc4)CC3)cc2)cc1S(=O)(=O)C(F)(F)F [AZD4320] + CN(C)CCCOc1ccc(-c2ccc3ncc4c(c3c2)n(C2CCOCC2)c(=O)n4C)cn1 [AZD0156] (first compound max 1 µM, 7x7, partner max 1 µM) | -0.0277 | -0.0134 | -0.0225 | -0.005 | -0.028 | -0.0045 | -0.0001 | -0.0541 | 0.0312 | -0.0636 | -0.0214 | -0.0088 | 0.0221 | -0.0459 | -0.0583 | -0.0538 | 0.0211 | -0.0601 | 0.0223 | -0.0277
